Test results from patent US20200232961A1, “CHARACTERIZATION AND APPLICATION OF POLYMERS FOR IN VIVO RELEVANT DRUG ABSORPTION CHARACTERIZATION IN VITRO” (priority 2017, published 2020).
Values after ≈ are worked out from the molar mass of the structure shown. Where a name gives a salt, the structure may show the parent alone. Read-outs that look alike come from different tables or passages of the source.

Key:
[1] = Partition coefficient measurements in PDMS membranes; type: physicochemical; conditions: intrinsic non-ionized partition coefficient, N = 5
Experimental: For each drug, five membranes were prepared. Each membrane was prepared with 10 parts base to 1 part curing agent and cured at 20° C. for at least 72 hours. Once cured, the membranes were sectioned using a template and razor blade. The dimensions of the perimeter and thickness were measured using a caliper to determine the volume of membrane. After determining membrane density, subsequent volume measurements were made using the density relationship. Stock solution was distributed to 5 sample vials with 1 membrane-free vial to serve as a control. The time zero point was measured from the blank vial and time points and 1 mL samples were taken at 12 and 24 hours. The collected samples were assayed in duplicate by HPLC. Bulk transport properties of PDMS were measured to evaluate PDMS fitness for the mimicking human oral absorption. The partition coefficient was calculated according to Equation 4. K=Partition coefficient Cmem*=Equilibrium concentration of drug in membrane Caq*=Equilibrium concentration of drug in the aqueous media

[2] = Rotating membrane diffusion cell experiments (permeation through PDMS membrane); conditions: for LAG TIME (PRED.): predicted from Crank's method (Equation 16); for LAG TIME (EXP.): time to steady state transport across the membrane, linear regression of concentration versus time
[3] = UTLAM diffusion cell dissolution/absorption experiment; type: in vitro ADME; conditions: 57 micron PDMS UTLAM, donor 50 mM phosphate pH 6.5, receiver pH 8.0, 37° C., 50 rpm, 162 mg dose
Experimental: According to the SEM freeze-fracture-determined thickness based on the terminal rotational speed and mass fraction of PDMS, the membranes tested in the following experiments were 57 microns thick. 130 mL of 50 mM phosphate buffer pH 6.5 was degas sed and used as the donor phase, while 100 mL of 50 mM phosphate buffer pH 8.0 was degas sed and used as the receiver phase. The rationale behind this is that PDMS has poor ability to transport ions (a […] pH-partition relationship) and the more ionized the drug is, the less driving force the drug will provide for reverse transport out of the receiver phase. […] Ultimately, this leads to a […] transport rate of ibuprofen returning to the donor compartment. […] It is understood that the measured absorption rate is […] due the additional partitioning kinetics introduced by the resin that forms the UTLAM device. […] Physiologically, it is understood that the bicarbonate buffer bulk pH and buffer capacity are lower in the duodenum and jejunum than that of the USP 2 dissolution test. […]
The PDMS UTLAM is floated in deionized water and in about two hours the PVA is dissolved enough to tease the PDMS UTLAM to the surface of the water. […] Equivalent stirring rates could be calculated for the USP 2 paddle using CFD measurements made in COMSOL. […]

[4] = Equilibrium partition coefficient of ibuprofen into VeroClear resin spheres; type: physicochemical; conditions: pH 2 in VeroClear, 10 mm diameter spheres
physchem = conditions: pH 2, aqueous buffer, thermodynamic from solid
Experimental: Five 1.5 mL centrifuge tubes were labeled and prepared with 1 mL of the appropriate non-ionizing buffer (see Table 5). Solid drug in powder form was added to each individual vial and then vortexed. The addition of drug and vortex mixing was repeated until there was visible undissolved drug powder present. The centrifuge tubes were then put into a hot box where they remained at an aqueous temperature of 37° C. (set point 43° C.). The internal temperature was determined by measuring the temperature of a “blank” tube in the rack. Once the internal temperature reached 37° C., the tubes were held at 37° C. for 48 hours. The tubes were removed from the hot box and centrifuged at 17,000G for 3 hours. The tubes cooled below 37° C. during the centrifugation so the tubes were re-inserted into the hot box and allowed to reach 37° C. over the course of 1 hour. Supernatant was then extracted directly from the tube in the hot box without disturbing the pellet. The supernatant was appropriately diluted for HPLC analysis.
In each permeation experiment, the donor-phase-containing drug was at a non-ionizing pH if the drug was ionizable and the receiver phase was at a completely ionizing (>99%) pH. […] Progesterone solubility was determined twice, the second time as an analytical check.

[5] = not told
[6] = Mass increase of PDMS membranes after equilibrium partitioning with ibuprofen; type: physicochemical
Experimental: Ibuprofen was chosen as a model drug because of its high lipophilicity and the ability to measure the difference in mass of drug in the membrane before and after the partitioning experiment. There was no statistical difference in the positronium lifetimes, but there was a 1.76 mg±0.12 mg (n=7) mass increase in 25% by mass curing agent PDMS membranes, and a 2.90 mg±0.38 mg (n=6) mass increase in […] by mass curing agent PDMS membranes.

[7] = type: physicochemical
Experimental: This experiment was conducted in a manner similar to the experiment described in “Partition Coefficient Measurements”, above. […] Four different mass % of curing agents (4.9%, 9.1%, 16%, and 25%) were examined at two different pH conditions (2.00 HCl 13 mM & 6.50 phosphate 50 mM). The Log DPDMS was measured as a function of pH at pH 2.00, 5.00, 6.45, and 12.00 using 13 mM HCl, 50 mM acetate, 50 mM phosphate, and 39 mM NaOH buffers, respectively, at RT (FIG. 5C).

[8] = literature values (refs 6, 41); cited from earlier work
[9] = average PDMS KD divided by 10^LogK for PDMS

Row | PDMS LOGK [1] | AVG. PDMS (K*D) [5] | LAG TIME (PRED.) [5] | PARTITION INDEPENDENT DIFF. COEFF (K*D)/10^LOGK^PDMS [2, 9] | SMILES | LAG TIME (PRED.) [2] | LAG TIME (EXP.) [2] | other results
1 | 1.79 | 1.83 × 10^−5 CM^2 S^−1 | 158 min | 2.99 × 10^−7 CM^2 S^−1 | CC(C)Cc1ccc(C(C)C(=O)O)cc1 (stereo not drawn) [IBUPROFEN, Ibuprofen] |  |  | absorption rate (net flux) [3]: within the same order of magnitude of ibuprofen absorption in human beings; K (equilibrium partition coefficient) in VeroClear [4]: 86; solubility thermodynamic at 48 h (physchem; NON-IONIZED SOLUBILITY): 60 mg/mL (≈ 291 mM); mass increase of PDMS membrane after equilibrium partitioning ([6]; 3.2% by mass curing agent PDMS membranes, n=6): 2.90 mg; mass increase of PDMS membrane after equilibrium partitioning ([6]; 25% by mass curing agent PDMS membranes, n=7): 1.76 mg; MEASURED PDMS LOGPU ± SE [7]: 1.81; PI EQ. 6 ([7]; calculated to fit equation 6 using data at pH 11.81 and fu~0): 0.008; MEASURED PDMS PU ± SE ([7]; intrinsic non-ionized partition coefficient, N = 15): 65; K (partition coefficient) in PDMS ([7]; pH 2): 65; MEASURED PDMS LOGPI ± SE ([7]; pH 11.81): −0.286
2 | 0.68 |  |  |  | COCCc1ccc(OCC(O)CNC(C)C)cc1 (stereo not drawn) [METOPROLOL TARTRATE, Metoprolol Tartrate] |  |  | 
3 | 2.03 | 1.14 × 10^−5 CM^2 S^−1 | 158 min | 1.07 × 10^−7 CM^2 S^−1 | CC(=O)[C@H]1CC[C@H]2[C@@H]3CCC4=CC(=O)CC[C@]4(C)[C@H]3CC[C@]12C [PROGESTERONE, Progesterone] |  |  | solubility thermodynamic at 48 h (physchem; 13 mM hydrochloric acid buffer, NON-IONIZED SOLUBILITY (ANALY. COMP.), second determination as analytical check with different dilution, pH 2.00 13 mM hydrochloric acid buffer at 37° C.): 20.9 mg/mL (≈ 66.5 mM); solubility thermodynamic at 48 h (physchem; 13 mM hydrochloric acid buffer, NON-IONIZED SOLUBILITY, I = pH 2.00 13 mM hydrochloric acid buffer at 37° C.): 21.3 mg/mL (≈ 67.7 mM)

Row | SMILES | PDMS LOGK [1] | AVG. PDMS (K*D) [5] | LAG TIME (PRED.) [5] | PARTITION INDEPENDENT DIFF. COEFF (K*D)/10^LOGK^PDMS [2, 9] | LAG TIME (PRED.) [2] | LAG TIME (EXP.) [2] | other results
4 | O=C(O)c1ccccc1 [BENZOIC ACID, Benzoic Acid] | 0.10 |  |  |  | 238 min | 25 min | 
5 | Cn1c(=O)c2c(ncn2C)n(C)c1=O [CAFFEINE, Caffeine] |  | 6.02 × 10^−10 CM^2 S^−1 | 571 min |  |  |  | PARTITION I[…]. COEFF (K*D)/10^LOGK^PDMS [2, 9]: 1.70 × 10^−8 CM^2 S^−1
6 | CC(C(=O)O)c1cccc(C(=O)c2ccccc2)c1 (stereo not drawn) [KETOPROFEN, Ketoprofen] | 0.56 |  |  | 2.58 × 10^−8 CM^2 S^−1 | 482 min | 232 min | pKa [8]: 3.89; AVG. PDMS (K*D) ([2]; non-ionized drug, donor/receiver buffer I/III as printed, 37° C., 150 rpm): 9.46 × 10^−8 CM^2 S^−1
